What all share (experiment): inhibition of PEG-3 promoter-driven reporter – cell-based, HeLa, luciferase, CREF/GAPDH counter-screen panel, dose response (AID 624167)
(Counterscreens check selectivity or assay interference.)

In assay [1] the test system is PEG-3. The conditions noted are these: HeLa PEG-Prom luciferase reporter, overnight, CREF/GAPDH counter-screens. In general terms: In a reporter assay the amount or activity of a reporter protein is the signal.
For a further assay, the system named is Rat fibroblasts (CREF). As to conditions: CREF/GAPDH counter-screens.
Assay [2] addresses PEG-3 (UniProt Q6IN02). As to conditions: HeLa PEG-Prom luciferase reporter, overnight, CREF/GAPDH counter-screens, mean of runs.
Where [3] appears, read: run 1, dose range 1, individual replicate IC50 per panel.
The mark [4] stands for this setting: run 2, dose range 1, individual replicate IC50 per panel.

Activity calls are given as the source filed them.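 The calls were made as follows: active = mean IC50 for reducing PEG3 promoter reporter signal at or below a set limit, with IC50 above the limit in both counter screens; inactive = the rest, including counter screen hits.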 Some results are limits rather than exact numbers.

By IC50 is commonly meant the concentration at which inhibition is half-maximal.

Sequence of PEG-3 (UniProt Q6IN02) (Q6IN02 whole entry, looked up): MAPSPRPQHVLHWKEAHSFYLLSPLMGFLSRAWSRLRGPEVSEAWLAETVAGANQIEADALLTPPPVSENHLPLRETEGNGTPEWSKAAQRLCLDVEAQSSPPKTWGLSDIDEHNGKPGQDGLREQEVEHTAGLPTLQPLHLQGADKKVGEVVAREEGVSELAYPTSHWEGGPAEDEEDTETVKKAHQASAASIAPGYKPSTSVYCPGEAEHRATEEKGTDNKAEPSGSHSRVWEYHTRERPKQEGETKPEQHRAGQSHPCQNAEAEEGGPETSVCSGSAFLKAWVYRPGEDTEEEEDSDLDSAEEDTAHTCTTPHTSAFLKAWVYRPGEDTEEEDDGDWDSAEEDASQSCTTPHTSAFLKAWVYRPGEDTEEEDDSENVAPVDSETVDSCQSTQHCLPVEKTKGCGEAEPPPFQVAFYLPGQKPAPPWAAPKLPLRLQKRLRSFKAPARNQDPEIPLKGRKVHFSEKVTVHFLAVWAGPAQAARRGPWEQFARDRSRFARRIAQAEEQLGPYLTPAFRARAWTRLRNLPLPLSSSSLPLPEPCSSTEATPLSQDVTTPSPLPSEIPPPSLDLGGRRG

Take `O=C(Cn1ncc(Cl)c(Cl)c1=O)N1CCc2ccccc21`: the IC50 in the assay on PEG-3 [1] (setting [3]) was 10.1 µM; with PEG-3 [1] (setting [4]), 7.38 µM; in the assay on Rat fibroblasts (CREF) (mean of runs) it was 14.3 µM; with Rat fibroblasts (CREF) (setting [3]), 18.5 µM; in the assay on Rat fibroblasts (CREF) (setting [4]) it was 10 µM; on PEG-3 [2], 8.73 µM.
Turning to `Cc1cc(C(=O)CN2C(=O)c3ccccc3S2(=O)=O)c(C)n1CC1CCCO1` (configuration not stated), the IC50 with PEG-3 [1] (setting [3]) was 0.76 µM; in the assay on PEG-3 [1] (setting [4]), 0.375 µM; in the assay on Rat fibroblasts (CREF) (mean of runs), 3.91 µM; with Rat fibroblasts (CREF) (setting [3]), 1.95 µM; in the assay with Rat fibroblasts (CREF) (setting [4]) it was 5.86 µM; at PEG-3 [2] it was 0.568 µM.
For the compound `COc1ccccc1C(=O)Nc1nc2ccccc2s1`, the IC50 with PEG-3 [1] (setting [3]) was 0.515 µM; in the assay with PEG-3 [1] (setting [4]), 0.633 µM; in the assay on Rat fibroblasts (CREF) (mean of runs), 0.489 µM; in the assay with Rat fibroblasts (CREF) (setting [3]), 0.348 µM; in the assay on Rat fibroblasts (CREF) (setting [4]), 0.631 µM; at PEG-3 [2], 0.574 µM.
`O=C(c1ccc(Cl)cc1)N1CCCCC(Sc2nnc(-c3ccc4c(c3)OCO4)o2)C1=O` (configuration not stated): the IC50 in the assay with PEG-3 [1] (setting [3]) was 0.669 µM; in the assay with PEG-3 [1] (setting [4]) it was 3.91 µM; with Rat fibroblasts (CREF) (mean of runs) it was 2.25 µM; with Rat fibroblasts (CREF) (setting [3]), 3.87 µM; in the assay with Rat fibroblasts (CREF) (setting [4]) it was 0.643 µM; at PEG-3 [2], 2.29 µM.
Regarding `O=C(CCl)Nc1ccccc1Sc1ccc(Cl)cc1`, the IC50 in the assay with PEG-3 [1] (setting [3]) is 13 µM; in the assay with PEG-3 [1] (setting [4]) it was 7.06 µM; with Rat fibroblasts (CREF) (mean of runs) it was 8.11 µM; with Rat fibroblasts (CREF) (setting [3]), 8.04 µM; with Rat fibroblasts (CREF) (setting [4]), 8.18 µM; at PEG-3 [2], 10.1 µM.
Regarding `Cc1nc2cc(-c3ccccc3)sc2c(=O)n1N`, the IC50 is 1.49 µM with PEG-3 [1] (setting [3]); 1.34 µM with PEG-3 [1] (setting [4]); 3.4 µM with Rat fibroblasts (CREF) (mean of runs); 3.94 µM with Rat fibroblasts (CREF) (setting [3]); 2.87 µM with Rat fibroblasts (CREF) (setting [4]); 1.41 µM on PEG-3 [2].
On to `COC1=C(Br)C(=O)c2ncccc2C1=O`, for which the IC50 in the assay with PEG-3 [1] (setting [3]) was 8.01 µM; in the assay with PEG-3 [1] (setting [4]), 5.3 µM; in the assay with Rat fibroblasts (CREF) (mean of runs), 14.2 µM; with Rat fibroblasts (CREF) (setting [3]), 8.91 µM; in the assay with Rat fibroblasts (CREF) (setting [4]) it was 19.4 µM; on PEG-3 [2] it was 6.65 µM.
With `Cc1nc(SCC(=O)Nc2nc3ccccc3s2)c(C#N)c(C)c1C`, the IC50 in the assay on PEG-3 [1] (setting [3]) is 8.05 µM; with PEG-3 [1] (setting [4]), below 0.2 µM; in the assay on Rat fibroblasts (CREF) (mean of runs), 7.9 µM; with Rat fibroblasts (CREF) (setting [3]), 0.232 µM; in the assay with Rat fibroblasts (CREF) (setting [4]), 15.6 µM; on PEG-3 [2], 4.13 µM.
On to `CCCCCN1C=CC(=C2C(=O)c3ccccc3C2=O)C=C1`, for which the IC50 with PEG-3 [1] (setting [3]) was 1.08 µM; in the assay with PEG-3 [1] (setting [4]) it was 1.4 µM; in the assay on Rat fibroblasts (CREF) (mean of runs), 0.729 µM; in the assay on Rat fibroblasts (CREF) (setting [3]) it was 0.371 µM; in the assay on Rat fibroblasts (CREF) (setting [4]) it was 1.09 µM; at PEG-3 [2], 1.24 µM.
In the case of `O=C(CN1C(=O)c2ccccc2S1(=O)=O)c1ccc2c(c1)OCCCO2`, the IC50 is 0.77 µM with PEG-3 [1] (setting [3]); 0.411 µM with PEG-3 [1] (setting [4]); 1.28 µM with Rat fibroblasts (CREF) (mean of runs); 1.07 µM in the assay with Rat fibroblasts (CREF) (setting [3]); 1.48 µM in the assay on Rat fibroblasts (CREF) (setting [4]); 0.59 µM on PEG-3 [2].
In the case of `COCCn1c(C)cc(C(=O)COC(=O)c2cccc(O)c2)c1C`, the IC50 was 16.1 µM in the assay on PEG-3 [1] (setting [3]); 5.48 µM in the assay with PEG-3 [1] (setting [4]); 0.611 µM in the assay with Rat fibroblasts (CREF) (mean of runs); 0.468 µM with Rat fibroblasts (CREF) (setting [3]); 0.755 µM with Rat fibroblasts (CREF) (setting [4]); 10.8 µM on PEG-3 [2].
Consider `Cc1cc(C(=O)CN2C(=O)c3ccccc3S2(=O)=O)c(C)n1-c1ccccc1`, for which the IC50 in the assay on PEG-3 [1] (setting [3]) was 2.98 µM; with PEG-3 [1] (setting [4]) it was 3.75 µM; in the assay on Rat fibroblasts (CREF) (mean of runs) it was 7.33 µM; with Rat fibroblasts (CREF) (setting [3]), 6.79 µM; with Rat fibroblasts (CREF) (setting [4]), 7.88 µM; at PEG-3 [2], 3.36 µM.
Regarding `Cc1ccc(C(=O)Nc2cnc3ccccc3c2)cc1`, the IC50 in the assay with PEG-3 [1] (setting [3]) is 0.416 µM; in the assay on PEG-3 [1] (setting [4]), 0.582 µM; in the assay with Rat fibroblasts (CREF) (mean of runs), 3.89 µM; with Rat fibroblasts (CREF) (setting [3]) it was 3.52 µM; in the assay with Rat fibroblasts (CREF) (setting [4]) it was 4.26 µM; on PEG-3 [2], 0.499 µM.
As to `Cc1c([N+](=O)[O-])cc(N2C(=O)C=CC2=O)cc1[N+](=O)[O-]`, the IC50 in the assay on PEG-3 [1] (setting [3]) was 9.19 µM; in the assay on PEG-3 [1] (setting [4]), 7.25 µM; in the assay on Rat fibroblasts (CREF) (mean of runs), 17.2 µM; in the assay with Rat fibroblasts (CREF) (setting [3]), 16.8 µM; in the assay on Rat fibroblasts (CREF) (setting [4]), 17.6 µM; at PEG-3 [2], 8.22 µM.
For `CN(C)c1ccc(/C=C/c2ccc3c4ccccc4ccc3[n+]2-c2ccccc2)cc1`, the IC50 in the assay on PEG-3 [1] (setting [3]) was 10.5 µM; in the assay with PEG-3 [1] (setting [4]), 9.52 µM; with Rat fibroblasts (CREF) (mean of runs), 17.8 µM; in the assay on Rat fibroblasts (CREF) (setting [3]), 16.9 µM; with Rat fibroblasts (CREF) (setting [4]), 18.7 µM; at PEG-3 [2], 10 µM.
Regarding `O=c1c2ccccc2sc2ccc(C#CC3(O)CCCCC3)cc12`, the IC50 was 2.93 µM in the assay with PEG-3 [1] (setting [3]); above 100 µM in the assay on PEG-3 [1] (setting [4]); 1.81 µM in the assay with Rat fibroblasts (CREF) (mean of runs); 1.36 µM in the assay on Rat fibroblasts (CREF) (setting [3]); 2.27 µM in the assay with Rat fibroblasts (CREF) (setting [4]). The IC50 result at PEG-3 [2] is “inactive”.
Regarding `Cc1ccc2oc(/N=C(\N)NC(=O)C(C)(C)C)nc2c1`, the IC50 is 0.725 µM with PEG-3 [1] (setting [3]); above 100 µM with PEG-3 [1] (setting [4]); 2.99 µM in the assay on Rat fibroblasts (CREF) (mean of runs); 0.412 µM in the assay with Rat fibroblasts (CREF) (setting [3]); 5.57 µM with Rat fibroblasts (CREF) (setting [4]). Besides, the IC50 entry at PEG-3 [2] was “inactive”.

Source of the values: PubChem BioAssay AID624167 (Sanford-Burnham Center for Chemical Genomics, 2012).
